Source: patent US20250136594A1 (Tango Therapeutics, Inc., priority 2022, published 2025)

Legend:
[1] = test system: SDMA in HAP1 MTAP-intact cell line (PRMT5 inhibition); assay: SDMA in-cell western assay, HAP1 MTAP-intact cell line; conditions: Homo sapiens, HAP1, read-out: Hap1 MTAP intact IC50
Excerpt: (§1) HAP1 MTAP-intact is a cell line in which endogenous levels of MTAP are expressed, and HAP1 MTAP-deleted is an MTAP-null cell line.

[2] = test system: SDMA in HAP1 MTAP-deleted (MTAP-null) cell line (PRMT5 inhibition); assay: SDMA in-cell western assay, HAP1 MTAP-deleted cell line; conditions: for IC50 / IC90: Homo sapiens; for IC50: HAP1, read-out: Hap1 MTAP deleted IC50; for IC90: HAP1, read-out: Hap1 MTAP deleted IC90; for Hap1 MTAP intact/deleted ratio: ratio of SDMA IC50 in HAP1 MTAP-intact to HAP1 MTAP-deleted cell line
Excerpt: as §1

[3] = test system: HAP1 MTAP-deleted cell line; assay: Viability assay, HAP1 MTAP-deleted cell line; type: cell-based; conditions: Homo sapiens; viability assay, HAP1 MTAP-deleted cell line; read-out: Hap1 MTAP deleted viability IC50

Structure (SMILES)	IC50 [1] [nM]	IC50 [2] [nM]	IC90 [2] [nM]	Hap1 MTAP intact/deleted ratio [2]	IC50 [3] [nM]
Nc1ncc(NC(=O)C(=O)N(Cc2ccccc2)Cn2cccn2)c2[nH]ncc12 [Compound 181, N-(4-amino-1H-pyrazolo[4,3-c]pyridin-7-yl)-N′-benzyl-N′-(pyrazol-1-ylmethyl)oxamide]	> 50	< 5	< 75	A (IC50 ratio greater than or equal to 30 fold)	100 to 1000
Nc1ncc(NC(=O)C(=O)N(Cc2ccccn2)Cc2cccc3c2CCCO3)c2[nH]ncc12 [Compound 92, N-(4-amino-2H-pyrazolo[4,3-c]pyridin-7-yl)-N′-(chroman-5-ylmethyl)-N′-(2-pyridylmethyl)oxamide]	< 5	< 5	< 75	C (IC50 ratio of less than 15 fold)	< 100
NC(=O)c1cncc(NC(=O)C(=O)N(Cc2ccc(C(F)(F)F)cn2)[C@@H]2CCC[C@H]2OC(F)F)c1 [Compound 22, N1-(5-carbamoylpyridin-3-yl)-N^2-((1R,2R)-2-(difluoromethoxy)cyclopentyl)-N^2-((5-(trifluoromethyl)pyridin-2-yl)methyl)oxalamide]	> 50	5 to 50	75 to 125	A (IC50 ratio greater than or equal to 30 fold)	100 to 1000
CC[C@H](C)CN(Cc1ccccc1C)C(=O)C(=O)Nc1cnc(N)c2cn[nH]c12 [Compound 60, (S)—N^1-(4-amino-1H-pyrazolo[4,3-c]pyridin-7-yl)-N^2-(2-methylbenzyl)-N^2-(2-methylbutyl)oxalamide]	5 to 50	< 5	< 75	A (IC50 ratio greater than or equal to 30 fold)	< 100
CCc1cc(NC(=O)C(=O)N(Cc2ccc(C(F)(F)F)cn2)[C@@H](COC)C2CC2)cnc1N [Compound 7, (R)—N^1-(6-amino-5-ethylpyridin-3-yl)-N^2-(1-cyclopropyl-2-methoxyethyl)-N^2-((5-(trifluoromethyl)pyridin-2-yl)methyl)oxalamide]	> 50	5 to 50	> 125	B (IC50 ratio greater than or equal to 15 fold but lower than 30 fold)	100 to 1000
CC(C)CN(Cc1ccccc1)C(=O)C(=O)Nc1cnc(N)c2cn[nH]c12 [Compound 101, N-(4-amino-1H-pyrazolo[4,3-c]pyridin-7-yl)-N′-benzyl-N′-isobutyl-oxamide]	> 50	< 5	75 to 125	A (IC50 ratio greater than or equal to 30 fold)	< 100
Nc1ncc(NC(=O)C(=O)N(Cc2ccccc2)Cc2cccnc2)c2[nH]ncc12 [Compound 29, N-(4-amino-1H-pyrazolo[4,3-c]pyridin-7-yl)-N′-benzyl-N′-(3-pyridylmethyl)oxamide]	> 50	< 5	< 75	A (IC50 ratio greater than or equal to 30 fold)	< 100
Nc1ncc(NC(=O)C(=O)N(Cc2ccccc2)Cc2ccccc2Cl)c2[nH]ncc12 [Compound 87, N-(4-amino-1H-pyrazolo[4,3-c]pyridin-7-yl)-N′-benzyl-N′-[(2-chlorophenyl)methyl]oxamide]	5 to 50	< 5	< 75	B (IC50 ratio greater than or equal to 15 fold but lower than 30 fold)	< 100
CCN(Cc1ccc(C(F)(F)F)cc1F)C(=O)C(=O)Nc1cnc(N)c2cn[nH]c12 [Compound 72, N-(4-amino-2H-pyrazolo[4,3-c]pyridin-7-yl)-N′-ethyl-N′-[[2-fluoro-4-(trifluoromethyl)phenyl]methyl]oxamide]	5 to 50	< 5	< 75	A (IC50 ratio greater than or equal to 30 fold)	< 100
Cc1cc(F)ccc1CN(Cc1ccccc1)C(=O)C(=O)Nc1cnc(N)c2cn[nH]c12 [Compound 149, N-(4-amino-1H-pyrazolo[4,3-c]pyridin-7-yl)-N′-benzyl-N′-[(4-fluoro-2-methyl-phenyl)methyl]oxamide]	5 to 50	< 5	< 75	B (IC50 ratio greater than or equal to 15 fold but lower than 30 fold)	< 100
CC(C)CN(Cc1ccccc1F)C(=O)C(=O)Nc1cnc(N)c2cn[nH]c12 [Compound 94, N-(4-amino-1H-pyrazolo[4,3-c]pyridin-7-yl)-N′-[(2-fluorophenyl)methyl]-N′-isobutyl-oxamide]	5 to 50	< 5	< 75	B (IC50 ratio greater than or equal to 15 fold but lower than 30 fold)	< 100
Nc1ncc(NC(=O)C(=O)N(Cc2ccccn2)Cc2cccc(Cl)c2Cl)c2[nH]ncc12 [Compound 91, N-(4-amino-2H-pyrazolo[4,3-c]pyridin-7-yl)-N′—[(2,3-dichlorophenyl)methyl]-N′-(2-pyridylmethyl)oxamide]	< 5	< 5	< 75	C (IC50 ratio of less than 15 fold)	< 100
Nc1ncc(NC(=O)C(=O)N(Cc2ccccc2)C2CCOc3ccccc32)c2[nH]ncc12 (centres unmarked) [Compound 97, N-(4-Amino-1H-pyrazolo[4,3-c]pyridin-7-yl)-N′-benzyl-N′-chroman-4-yl-oxamide]	5 to 50	< 5	< 75	B (IC50 ratio greater than or equal to 15 fold but lower than 30 fold)	< 100
C[C@@H](c1ccc(C(F)(F)C(F)(F)F)cc1F)N(C)C(=O)C(=O)Nc1cnc(N)c2cn[nH]c12 [Compound 168, N-(4-Amino-1H-pyrazolo[4,3-c]pyridin-7-yl)-N′-methyl-N′—[(1S)-1-[2-fluoro-4-(1,1,2,2,2-pentafluoroethyl)phenyl]ethyl]oxamide]	> 50	5 to 50	75 to 125	A (IC50 ratio greater than or equal to 30 fold)	< 100
CN(Cc1ccc(C(F)(F)F)cc1F)C(=O)C(=O)Nc1cnc(N)c2cn[nH]c12 [Compound 96, N-(4-Amino-1H-pyrazolo[4,3-c]pyridin-7-yl)-N′-[[2-fluoro-4-(trifluoromethyl)phenyl]methyl]-N′-methyl-oxamide]	> 50	5 to 50	> 125	A (IC50 ratio greater than or equal to 30 fold)	100 to 1000
C[C@@H](c1ccc(C(F)(F)F)cc1F)N(C)C(=O)C(=O)Nc1cnc(N)c2c1cnn2C [Compound 82, N-(7-Amino-1-methyl-pyrazolo[3,4-c]pyridin-4-yl)-N′-methyl-N′—[(1S)-1-[2-fluoro-4-(trifluoromethyl)phenyl]ethyl]oxamide]	> 50	5 to 50	> 125	B (IC50 ratio greater than or equal to 15 fold but lower than 30 fold)	100 to 1000
CCN(Cc1ccc(F)cc1C)C(=O)C(=O)Nc1cnc(N)c2cn[nH]c12 [Compound 166, N-(4-amino-1H-pyrazolo[4,3-c]pyridin-7-yl)-N′-ethyl-N′-[(4-fluoro-2-methyl-phenyl)methyl]oxamide]	> 50	< 5	> 125	A (IC50 ratio greater than or equal to 30 fold)	< 100
CCN(C(=O)C(=O)Nc1cnc(N)c2cn[nH]c12)[C@@H](C)c1ccc(C(F)(F)C(F)(F)F)cc1C [Compound 69, (S)—N^1-(4-amino-1H-pyrazolo[4,3-c]pyridin-7-yl)-N^2-ethyl-N^2-(1-(2-methyl-4-(perfluoroethyl)phenyl)ethyl)oxalamide]	> 50	5 to 50	< 75	B (IC50 ratio greater than or equal to 15 fold but lower than 30 fold)	< 100
CC(c1ccccc1)N(Cc1ccccn1)C(=O)C(=O)Nc1cnc(N)c2cn[nH]c12 (centres unmarked) [Compound 174, N-(4-amino-1H-pyrazolo[4,3-c]pyridin-7-yl)-N′-(1-phenylethyl)-N′-(2-pyridylmethyl)oxamide]	5 to 50	< 5	< 75	B (IC50 ratio greater than or equal to 15 fold but lower than 30 fold)	< 100
COC[C@@H](C1CC1)N(Cc1ccc(C(F)(F)F)cn1)C(=O)C(=O)Nc1cnc(N)c(C2CC2)c1 [Compound 45, (R)—N^1-(6-amino-5-cyclopropylpyridin-3-yl)-N^2-(1-cyclopropyl-2-methoxyethyl)-N^2-((5-(trifluoromethyl)pyridin-2-yl)methyl)oxalamide]	> 50	5 to 50	> 125	A (IC50 ratio greater than or equal to 30 fold)	100 to 1000
CC(c1ccccn1)N(Cc1ccccc1)C(=O)C(=O)Nc1cnc(N)c2cn[nH]c12 (centres unmarked) [Compound 139, N-(4-amino-1H-pyrazolo[4,3-c]pyridin-7-yl)-N′-benzyl-N′-[1-(2-pyridyl)ethyl]oxamide]	5 to 50	< 5	< 75	A (IC50 ratio greater than or equal to 30 fold)	< 100
CCN(Cc1ccccc1C)C(=O)C(=O)Nc1cnc(N)c2cn[nH]c12 [Compound 151, N-(4-amino-1H-pyrazolo[4,3-c]pyridin-7-yl)-N′-ethyl-N′-(0-tolylmethyl)oxamide]	> 50	< 5	75 to 125	A (IC50 ratio greater than or equal to 30 fold)	< 100
